One compound from publication PMC12055592, “Post-symptomatic NLRP3 inhibition rescues cognitive impairment and mitigates amyloid and tau driven neurodegeneration” (Npj Dementia, 2025) can be followed below.

What is called IC50 is the midpoint of a concentration-inhibition curve.

For series [1], the system named is NLRP3 inflammasome, IL-1β release in human PBMCs. Description: PBMC in vitro assay (LPS priming, nigericin, secreted IL-1β). Format: cell-based. The method, then: Cryopreserved human PBMCs (iXCells Biotechnologies, San Diego, CA) were rapidly thawed and incubated overnight at 37 °C with 5% CO2 in Complete Media: RPMI 1640 medium (ATCC modification, Thermo Fisher Scientific) supplemented with 10% Fetal bovine serum (FBS, Thermo Fisher Scientific) and 1% Penicillin-Streptomycin (Thermo Fisher Scientific). The next day, cells were centrifuged (300 × g, 5 min), resuspended in Assay Media (Complete Media without FBS) and plated at 33,333 cells/well in a 96-well cell culture plate. PBMCs were then primed with 100 ng/ml LPS (E. coli O26:B6) for 4 h. Following LPS priming, PBMCs were incubated with VEN-02XX pre-diluted in assay media with 0.8% DMSO, for 30 min (top concentration 100 µM; 4-fold titration). Following drug incubation, PBMCs were stimulated with 10 µM Nigericin (Millipore-Sigma, Burlington, MA) for an additional 60 min, after which conditioned media was collected for analysis of secreted IL-1β in an electrochemiluminescence immunoassay (Mesoscale Discovery).

Series [2] relates to 5XFAD/Rubicon KO mice. The series can be described thus: Sucrose preference test in 5XFAD/Rubicon KO mice. Type of series: in vivo, mouse. Here is the method:
(§1) 5XFAD/Rubicon KO mice received vehicle (0.5% w/v methylcellulose/0.1% w/v Tween® 80 in water) or VEN-02XX (0.01, 1, or 20 mg/kg) every day by oral gastric gavage for 9 weeks.
Basal preference to sucrose was first assessed on all enrolled mice. Individually housed mice were acclimated to the testing room for 48 h and to the two-bottle setup, where both bottles contained water, for 3 days. A 2% sucrose solution replaced the water in one bottle, and water consumption was measured for 4 consecutive days, while rotating the position of the sucrose-containing bottle. At the end of the testing period, both bottles were measured, and sucrose preference was calculated by dividing the intake from the sucrose bottle by the intake from both bottles, expressed as the percentage of sucrose preference. Preference to sucrose was re-assessed at 6- and 9-weeks following dosing with VEN-02XX. The test was performed as described above, with one bottle switched for 3% sucrose water. As before, bottles were rotated daily to reduce bias and leakage concerns, and the consumption was monitored for 4 days.

The test system of another series is AIM2. The series can be described thus: AIM2 in vitro selectivity assay (THP1-KO-NLRP3 cells, Poly(dA:dT), IL-1β). Format: cell-based. The conditions noted are these: n = 2; top concentration 50 µM. Here is the method: THP1-KO-NLRP3 cells (Invivogen, San Diego, CA), resuspended in RPMI 1640 (Thermo Fisher Scientific) supplemented with 25 mM HEPES (Thermo Fisher Scientific), 10% FBS (Thermo Fisher Scientific) and 1% Penicillin-Streptomycin (Thermo Fisher Scientific), were seeded at 75,000 cells/well in a 96-well cell culture plate and treated with 50 ng/ml Phorbol 12-myristate 13-acetate (PMA, Millipore) for 24 h at 37 °C with 5% CO2. The next day, the media was replaced with fresh media containing 2.2% FBS, and cells were pretreated for 60 min with VEN-02XX (top concentration 50 µM; 5-fold titration) before DNA transfection. Lipofectamine 2000 (Thermo Fisher Scientific), for a final concentration of 2 µg/ml, and Poly(dA:dT) (Invivogen), for a final concentration of 1 µg/ml, were mixed together in OptiMEM (Thermo Fisher Scientific) 5 min before their addition to the cells. After a 24-h incubation at 37 °C with 5% CO2, supernatants were collected and IL-1β levels determined in an electrochemiluminescence immunoassay (Mesoscale Discovery).

Series [3] relates to NLRP3 inflammasome, IL-1β in iPSC-derived microglia. The series can be described thus: iPSC-derived microglia in vitro assay, secreted IL-1β. Format: cell-based. Particulars: for IC50: Microglia, geometric mean, n = 5. The method, then:
iPSC-derived microglia (BX-0900, BrainXell, Madison, WI) were thawed and recovered as per the supplier’s instructions. Briefly, viable cells were counted post-thaw using Trypan Blue, 0.4% (Thermo Fisher Scientific) and 25,000 cells were seeded on poly-d-lysine coated 96-well plates in DMEM-F/12 medium (Thermo Fisher Scientific) supplemented with 1X B-27 supplement (Thermo Fisher Scientific), 1X N-2 supplement (Thermo Fisher Scientific), 1X Non-essential amino acids (Thermo Fisher Scientific), 1X Chemically defined lipid mix (Thermo Fisher Scientific), 1 mM GlutaMax (Thermo Fisher Scientific), 0.2 mM Ascorbic Acid (Millipore), 100 ng/mL IL-34 (PeproTech, Cranbury, NJ), 2 ng/mL TGF-β1 (PeproTech) and 20 ng/mL M-CSF (PeproTech). Fresh media was added 3 days after seeding, half of which was replenished with fresh media 6 days following seeding. The assay was performed 7 days after cells were seeded in 96-well plates. Two assay protocol variations were performed: cells were either pre-treated with VEN-02XX to block NLRP3 inflammasome formation and then primed with LPS (Fig. 1, D. Compound added before LPS priming) or were primed with LPS and then treated with VEN-02XX (Fig. 1, D. Compound added after LPS priming). For compound treatment, cells were treated with VEN-02XX for 1 h (top concentration 100 µM; 3-fold titration) to block NLRP3 inflammasome formation. For LPS priming, cells were primed with 100 ng/mL LPS (E.coli O26:B6, Millipore) for 4 h. At the end of either protocol, cells were stimulated with 10 uM Nigericin (Millipore) for 1 h, after which conditioned media was collected for analysis of secreted IL-1β, IL-18 and TNFα in an electrochemiluminescence immunoassay (Mesoscale Discovery).

The subject of series [4] is 5XFAD/Rubicon KO mice. The series can be described thus: Plasma neurofilament light chain (NfL) ELISA in 5XFAD/Rubicon KO mice. Type of series: in vivo, mouse. The conditions noted are these: 20 mg/kg, 9 weeks PO QD; lack of a dose-response. Here is the method: as §1
Blood was collected via submandibular puncture. Briefly, mice were immobilized, and a small puncture was made in the submandibular vein using a sterile 28 g lancet. Blood was collected using a capillary tube coated in 0.5 M EDTA into separation tubes for plasma as indicated. Blood was subsequently centrifuged for 15 min at 13,000 rpm in a refrigerated centrifuge. Plasma was harvested as indicated and was either used immediately or stored at −80 °C until use.
Brain tissue was homogenized in PBS, pH 7.4 with 1X Halt™ protease inhibitor cocktail (Thermo Fisher Scientific, Waltham, MA) using a Bead Ruptor homogenizer (Omni International, Kennesaw, GA). Homogenates were clarified by centrifugation at 10,000 × g for 10 min. The crude homogenate was used for quantification of VEN-02XX levels, as described below. Total protein concentrations were quantified from clarified supernatants in a Pierce BCA protein assay (Thermo Fisher Scientific). Cytokine and chemokine levels were quantified using an electrochemiluminescence immunoassay (ECLIA) for IL-1β (total), TNFα, IL-6 and IP-10 (U-PLEX Custom Biomarker Group 1 (mouse) assay, Meso Scale Discovery, Rockville, MD) following the manufacturer’s instructions. […]
A general note: ELISA stands for enzyme-linked immunosorbent assay.

Consider `CC(C)(O)CNc1nnc(-c2ccc(Cl)cc2C(F)(F)F)c2ccncc12` [VEN-02XX], for which the IC50 was 350 nM in series [1] (Homo sapiens, PBMC, geometric mean, n = 3, read-out: IL-1β inhibition (PBMCs) IC50); 250 nM in series [3] (compound added after LPS priming); 300 nM in series [3] (compound added before LPS priming). In series [1] (in words), the “potency of NLRP3 inhibition in PBMC” value is reported as “sub-micromolar potency”. Further, the water consumption entry in the series on 5XFAD/Rubicon KO mice [2] (6 and 9 weeks, sucrose preference test) is “no changes in water consumption”. Also, the “sucrose preference (anhedonia)” value was “significant improvement” with 5XFAD/Rubicon KO mice [2] (6 weeks post-dose initiation, 20 mg/kg PO QD); “trending reversal in the pre-dosing anhedonia” with 5XFAD/Rubicon KO mice [2] (6 weeks post-dose initiation, lower doses (0.01, 1 mg/kg) PO QD); “significant improvements” in the series with 5XFAD/Rubicon KO mice [2] (9 weeks, 1 mg/kg and 20 mg/kg PO QD, dose-dependent). In addition, in the series on AIM2, the “block of IL-1β release downstream of AIM2” value was “inability to block IL-1β release”. Further, in series [3] (in words), the “potency of NLRP3 inhibition in iPSC-derived microglia” value is listed as “sub-micromolar potency”. Further, in the series with 5XFAD/Rubicon KO mice [4], the “plasma NfL levels” value is “significantly reduced”.
